Laboratory results as given in US12122815B2, “GIP receptor agonist peptide compounds and uses thereof” (TAKEDA PHARMACEUTICAL COMPANY LIMITED, priority 2018, dated 2024).

Tests used:
human GLP-1R = target: T1, human GLP-1R (Homo sapiens, UniProt P43220); experiment: Agonist activity on human GLP-1R, CRE-luciferase reporter assay with increase in intracellular cAMP as indicator (hGLP-1R/CRE-luc/CHO-K1 cell); assay type: cell-based
T1 construct: FLAG (N)
From the text: (§1) Evaluation of Agonist Activity on Human GIPR and Human GLP-1R with Increase in Intracellular cAMP Concentration as Indicator
(§2) A) Evaluation of Agonist Activity on Human GIPR and Human GLP-IR with Increase in Intracellular cAMP Concentration as Indicator
(§3) (3) Construction of Reporter Plasmid
(§4) Four Copies of a cAMP responsive sequence and a Zeocin resistance gene were transferred to pGL3(R2.2)-Basic Vector (Promega) to construct a Cre-luc(Zeo) reporter plasmid.
(5) Construction of Expression Plasmid of Human GLP-1R Gene
The human GLP-IR gene having an identical sequence to Genebank Accession No. NM_002062 was cloned into a pIRESneo3 vector to prepare hGLP-1/pIRESneo3.
(6) Transfer of Human GLP-1R Gene and Reporter Plasmid to CHO-K1 Cell and Obtaining of Expressing Cell
The Cre-luc (Zeo) obtained in (3) and the plasmid hGLP-1/pIRESneo3 obtained in (5) were transferred to the CHO-K1 cell to obtain a transformant. Subsequently, the cell line inducing the luciferase expression, hGLP-1R/CRE-luc/CHO-K1 cell, was selected from the obtained transformant by adding GLP-1.
(§5) 25 μL each of the hGIPR/CRE-LUC/CHO-K1 cell was inoculated in a 384-well white plate (Corning) in such a way as to provide 5×10^3 cells/well and cultured in a HamF12 medium containing 10% fetal bovine serum, 100 U/mL penicillin, and 100 μg/mL streptomycin in a CO2 incubator at 37° C. overnight. 5 μL of a medium containing a test compound was added to the cells and incubated for 4 hours at the indicated concentration in a CO2 incubator at 37° C. Steady-Glo (Promega) was added in amounts of 30 μL and shaken under light shielding. 20 Minutes later, luciferase activity was measured using a plate reader Envision (PerkinElmer). The GIPR agonist activity was calculated with increase in intracellular cAMP concentration as the indicator when the luciferase activity in the presence of 10 nM of GIP was 100% and the luciferase activity in the case of adding DMSO instead of the test compound was 0%.
The GLP-IR agonist activity was assayed in the same manner as above using the hGLP-1R/CRE-luc/CHO-K1 cell.

human GIPR = target: T2, human GIPR (Homo sapiens, UniProt P48546); experiment: Agonist activity on human GIPR, CRE-luciferase reporter assay with increase in intracellular cAMP as indicator (hGIPR/CRE-LUC/CHO-K1 cell); assay type: cell-based
T2 construct: FLAG (N)
T2 sequence (P48546 22-466): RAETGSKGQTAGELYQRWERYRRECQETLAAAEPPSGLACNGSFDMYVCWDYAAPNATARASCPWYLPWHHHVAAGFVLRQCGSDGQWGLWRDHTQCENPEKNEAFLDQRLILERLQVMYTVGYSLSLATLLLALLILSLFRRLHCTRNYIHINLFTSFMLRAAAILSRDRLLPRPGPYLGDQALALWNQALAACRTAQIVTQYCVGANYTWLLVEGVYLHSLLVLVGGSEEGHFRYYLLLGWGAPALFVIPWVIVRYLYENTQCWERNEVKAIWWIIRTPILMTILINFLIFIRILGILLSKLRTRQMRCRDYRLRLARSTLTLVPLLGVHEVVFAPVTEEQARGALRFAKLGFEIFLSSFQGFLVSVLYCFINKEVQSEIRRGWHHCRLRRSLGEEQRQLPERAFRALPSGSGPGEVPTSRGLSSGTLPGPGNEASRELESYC
From the text: as §1, §2
(1) Construction of Expression Plasmid of Human GIPR Gene. The Human GIPR Gene Having an Identical Sequence to Genebank Accession No. U39231 was Cloned into a pMSRα-Neo Vector to Prepare hGIPR/pMSRα-Neo.
(2) Construction of Reporter Plasmid Expressing Cell Luciferase Reporter Gene with a cAMP-Responsive Sequence Located Upstream was Transferred to a CHO-K1 Cell to Construct a CRE-LUC/CHO-K1 Cell.
as §3, §4
(4) Transfer of Human GIPR Gene to CRE-LUC/CHO-K1 Cell and Obtaining of Expressing Cell the Plasmid hGIPR/pMSRα-Neo Obtained in (1) was Transferred to the CRELUC.
CHO-K1 cell obtained in (2) to obtain a transformant. Subsequently, the cell line inducing the luciferase expression, hGIPR/CRE-LUC/CHO-K1 cell, was selected from the obtained transformant by adding GIP.
as §5, with “Steady-Glo (Promega) was added in amounts of 30 μL and shaken under light shielding.” left out

T1 sequence (P43220 24-463): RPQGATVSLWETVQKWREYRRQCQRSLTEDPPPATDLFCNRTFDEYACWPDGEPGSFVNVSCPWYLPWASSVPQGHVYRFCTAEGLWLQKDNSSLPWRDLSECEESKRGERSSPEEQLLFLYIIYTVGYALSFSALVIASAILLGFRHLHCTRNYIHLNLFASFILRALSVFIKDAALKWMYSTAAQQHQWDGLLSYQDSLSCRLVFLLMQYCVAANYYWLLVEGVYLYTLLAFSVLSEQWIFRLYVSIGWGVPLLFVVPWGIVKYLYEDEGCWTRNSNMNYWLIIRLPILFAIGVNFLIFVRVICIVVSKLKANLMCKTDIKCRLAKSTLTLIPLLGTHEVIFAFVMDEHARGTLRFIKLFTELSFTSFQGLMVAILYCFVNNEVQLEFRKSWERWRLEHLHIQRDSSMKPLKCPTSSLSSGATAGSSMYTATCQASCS

Compound	EC50 (human GLP-1R) [nM]	EC50 (human GIPR) [nM]
CCCCCCCCCCCCCCCCCCCC(=O)NCC(=O)NCC(=O)NCC(=O)NCC(=O)NCCCC[C@H](NC(=O)[C@H](CO)NC(=O)[C@@H]1CCCN1C(=O)[C@@H]1CCCN1C(=O)[C@@H]1CCCN1C(=O)[C@H](C)NC(=O)CNC(=O)[C@H](CO)NC(=O)[C@H](CO)NC(=O)[C@@H]1CCCN1C(=O)CNC(=O)CNC(=O)[C@H](CCCCN)NC(=O)[C@H](CC(C)C)NC(=O)[C@H](CC(C)C)NC(=O)[C@H](Cc1c[nH]c2ccccc12)NC(=O)[C@H](CCCCN)NC(=O)[C@@H](NC(=O)[C@H](Cc1ccccc1)NC(=O)[C@H](CCC(=O)O)NC(=O)C(C)(C)NC(=O)[C@H](CCC(N)=O)NC(=O)[C@H](C)NC(=O)[C@H](CCC(N)=O)NC(=O)[C@H](CCCCN)NC(=O)[C@H](CC(=O)O)NC(=O)[C@H](CC(C)C)NC(=O)[C@H](CC(C)C)NC(=O)[C@@H](NC(=O)[C@H](CO)NC(=O)[C@H](Cc1ccc(O)cc1)NC(=O)[C@H](CC(=O)O)NC(=O)[C@H](CO)NC(=O)[C@H](CCCCN)NC(=O)[C@@H](NC(=O)[C@@H](NC(=O)CNC(=O)[C@H](CCC(=O)O)NC(=O)C(C)(C)NC(=O)[C@@H](N)Cc1ccc(O)cc1)[C@@H](C)O)C(C)C)[C@@H](C)CC)C(C)C)C(N)=O [Compound 8]	180	0.04
CCCCCCCCCCCCCCCC(=O)NCCCC[C@H](NC(=O)[C@H](CO)NC(=O)[C@@H]1CCCN1C(=O)[C@@H]1CCCN1C(=O)[C@@H]1CCCN1C(=O)[C@H](C)NC(=O)CNC(=O)[C@H](CO)NC(=O)[C@H](CO)NC(=O)[C@@H]1CCCN1C(=O)CNC(=O)CNC(=O)[C@H](CCCCN)NC(=O)[C@H](CC(C)C)NC(=O)[C@H](CC(C)C)NC(=O)[C@H](Cc1c[nH]c2ccccc12)NC(=O)[C@H](CCCCN)NC(=O)[C@@H](NC(=O)[C@H](Cc1ccccc1)NC(=O)[C@H](CCC(=O)O)NC(=O)C(C)(C)NC(=O)[C@H](CCC(N)=O)NC(=O)[C@H](C)NC(=O)[C@H](CCC(N)=O)NC(=O)[C@H](CCCCN)NC(=O)[C@H](CC(=O)O)NC(=O)[C@H](CC(C)C)NC(=O)[C@H](CC(C)C)NC(=O)[C@@H](NC(=O)[C@H](CO)NC(=O)[C@H](Cc1ccc(O)cc1)NC(=O)[C@H](CC(=O)O)NC(=O)[C@H](CO)NC(=O)[C@H](CCCCN)NC(=O)[C@@H](NC(=O)[C@@H](NC(=O)CNC(=O)[C@H](CCC(=O)O)NC(=O)C(C)(C)NC(=O)[C@@H](N)Cc1ccc(O)cc1)[C@@H](C)O)C(C)C)[C@@H](C)CC)C(C)C)C(N)=O [Compound 10]	210	0.03
CC[C@H](C)[C@H](NC(=O)[C@H](CO)NC(=O)[C@H](Cc1ccc(O)cc1)NC(=O)[C@H](CC(=O)O)NC(=O)[C@H](CO)NC(=O)[C@H](CCCCN)NC(=O)[C@@H](NC(=O)[C@@H](NC(=O)CNC(=O)[C@H](CCC(=O)O)NC(=O)C(C)(C)NC(=O)[C@@H](N)Cc1ccc(O)cc1)[C@@H](C)O)C(C)C)C(=O)N[C@@H](CC(C)C)C(=O)N[C@@H](CC(C)C)C(=O)N[C@@H](CC(=O)O)C(=O)N[C@@H](CCCCN)C(=O)N[C@@H](CCC(N)=O)C(=O)N[C@@H](C)C(=O)N[C@@H](CCC(N)=O)C(=O)NC(C)(C)C(=O)N[C@@H](CCC(=O)O)C(=O)N[C@@H](Cc1ccccc1)C(=O)N[C@H](C(=O)N[C@@H](CCCCN)C(=O)N[C@@H](Cc1c[nH]c2ccccc12)C(=O)N[C@@H](CC(C)C)C(=O)N[C@@H](CC(C)C)C(=O)N[C@@H](CCCCN)C(=O)NCC(=O)NCC(=O)N1CCC[C@H]1C(=O)N[C@@H](CO)C(=O)N[C@@H](CO)C(=O)NCC(=O)N[C@@H](C)C(=O)N1CCC[C@H]1C(=O)N1CCC[C@H]1C(=O)N1CCC[C@H]1C(=O)N[C@@H](CO)C(=O)N[C@@H](CCCCNC(=O)CCCCCCCCCCCCCCC(=O)O)C(N)=O)C(C)C [Compound 11]	180	0.1
CCCCCCCCCCCCCCCC(=O)NCCCC[C@H](NC(=O)[C@H](CO)NC(=O)[C@@H]1CCCN1C(=O)[C@@H]1CCCN1C(=O)[C@@H]1CCCN1C(=O)[C@H](C)NC(=O)CNC(=O)[C@H](CO)NC(=O)[C@H](CO)NC(=O)[C@@H]1CCCN1C(=O)[C@H](CCCCN)NC(=O)[C@H](CCC(N)=O)NC(=O)[C@H](C)NC(=O)[C@H](CC(C)C)NC(=O)[C@H](CC(C)C)NC(=O)[C@H](Cc1c[nH]c2ccccc12)NC(=O)[C@H](CC(N)=O)NC(=O)[C@@H](NC(=O)[C@H](Cc1ccccc1)NC(=O)[C@H](CC(=O)O)NC(=O)[C@H](CCC(N)=O)NC(=O)[C@H](CCC(N)=O)NC(=O)[C@H](Cc1c[nH]cn1)NC(=O)[C@@H](NC(=O)[C@H](CCCCN)NC(=O)[C@H](CC(=O)O)NC(=O)[C@H](CCSC)NC(=O)[C@H](C)NC(=O)[C@@H](NC(=O)[C@H](CO)NC(=O)[C@H](Cc1ccc(O)cc1)NC(=O)[C@H](CC(=O)O)NC(=O)[C@H](CO)NC(=O)[C@@H](NC(=O)[C@H](Cc1ccccc1)NC(=O)[C@@H](NC(=O)CNC(=O)[C@H](CCC(=O)O)NC(=O)[C@H](C)NC(=O)[C@@H](N)Cc1ccc(O)cc1)[C@@H](C)O)[C@@H](C)CC)[C@@H](C)CC)[C@@H](C)CC)C(C)C)C(N)=O [Compound 12]	86	–
